Measured values: patent publication US6770122B2, “Copper deposition using copper formate complexes” (E. I. du Pont de Nemours and Company, priority 2001, dated 2004)

Key:
[1] = Method: A common technique used in dissolving metal complexes in supercritical carbon dioxide is to add a co-solvent (Cross et al.). The requirements of a co-solvent have been defined (Cross et al.). Methanol and other alcohols are commonly used. […] In these measurements, the complex was dissolved in 0.25-1 mL of methanol or 1-butanol and then shaken with 5-10 mL hexane; solubility was indicated by formation of a homogeneous blue solution. Alcohols such as methanol and 1-butanol are totally miscible with supercritical carbon dioxide at ambient temperatures and high pressure (Cross et al). Between 2 to 5% cosolvent is typically used in order to retain supercritical properties of the solvent at reasonable temperatures and pressures.
[2] = Solubility in hexane, judged by blue colour of the solution; settings: no co-solvent, qualitative
Description: Copper formate complexes were prepared using 1-octyl-2-ethyl-4-methylimidazole and 1-hexyl-2-ethyl-4-methylimidazole as ligands.

Row | solubility in hexane with co-solvent (or supercritical carbon dioxide with co-solvent) [1] | Molecule | solubility in hexane (blue color of solution) [2] | solubility in hexane (blue color of solution) ([2]; listed as Cu(1-octyl-4-ethyl-2-methylimidazole)2(HCOO)2H2O)
1 | 1-(2-ethylhexyl)-2-ethyl-4-methyl- | CCCCC(CC)Cn1cc(C)nc1CC (centres unmarked) [1-(2-ethylhexyl)-2-ethyl-4-methylimidazole] | – | –
2 | 1-(2-ethylhexyl)pyrazole | CCCCC(CC)Cn1cccn1 (centres unmarked) [1-(2-ethylhexyl)pyrazole] | – | –
3 | 4-t-butylpyridine | CC(C)(C)c1ccncc1 [4-t-butylpyridine] | – | –
4 | – | Cu(1-octyl-4-ethyl-2-methylimidazole)2(HCOO)2H2O | dissolves in hexane to yield a blue solution | soluble in hexane
